{"source": "patent US20180117043A1", "about": "“USE OF SRC PROTEIN INHIBITOR IN THE MANUFACTURE OF A MEDICAMENT FOR THE PROPHYLAXIS AND/OR TREATMENT OF ALZHEIMER'S DISEASE” (JenKem Technology Co., Ltd. (Beijing), priority 2015, published 2018)", "key": {"[1]": {"test_system": "transgenic fruit flies and double transgenic mice expressing Aβ42", "conditions": "cited from earlier work; for treatment of Aβ42-induced memory loss: transgenic fruit flies and double transgenic mice expressing Aβ42, WO2012/103282; for curative effect in screening: compounds screened in WO2012/103282"}, "[2]": {"test_system": "primary isolated fetal mouse cerebral cortical neuron", "test": "Neuroprotective activity assay against Aβ42 oligomer toxicity, cell viability detected with WST-8", "conditions": "24 h"}, "[3]": {"conditions": "0.001 μM/L drug + Aβ42 10 μmol/L"}, "[4]": {"conditions": "0.01 μM/L drug + Aβ42 10 μmol/L"}, "[5]": {"conditions": "1000 μM/L drug + Aβ42 10 μmol/L"}, "[6]": {"conditions": "Aβ42 oligomer 10 μmol/L, compared with model group"}}, "data": [{"smiles": "CCN1CCN(Cc2ccc(-c3cc4c(N[C@H](C)c5ccccc5)ncnc4[nH]3)cc2)CC1", "note": "[AEE 788]", "values": [{"measurement": "treatment of Aβ42-induced memory loss", "setting": "[1]", "value": "effective"}]}, {"smiles": "CN(C)C/C=C/C(=O)Nc1cc2c(Nc3ccc(F)c(Cl)c3)ncnc2cc1O[C@H]1CCOC1", "note": "[BIBW 2992]", "values": [{"measurement": "treatment of Aβ42-induced memory loss", "setting": "[1]", "value": "effective"}]}, {"smiles": "Cc1c(NC(=O)OC[C@@H]2COCCN2)cn2ncnc(Nc3ccc4c(cnn4Cc4cccc(F)c4)c3)c12", "note": "[BMS-599626]", "values": [{"measurement": "treatment of Aβ42-induced memory loss", "setting": "[1]", "value": "effective"}]}, {"smiles": "CC#CC(=O)Nc1ccc2ncnc(Nc3cccc(Br)c3)c2c1", "note": "[CL-387785]", "values": [{"measurement": "treatment of Aβ42-induced memory loss", "setting": "[1]", "value": "effective"}]}, {"smiles": "C=CCNC1=C2C[C@@H](C)C[C@H](OC)[C@H](O)[C@@H](C)/C=C(\\C)[C@H](OC(N)=O)[C@@H](OC)/C=C\\C=C(/C)C(=O)NC(=CC1=O)C2=O", "note": "[Compound 17-AAG]", "values": [{"measurement": "treatment of Aβ42-induced memory loss", "setting": "[1]", "value": "effective"}]}, {"smiles": "Cc1nc(Nc2ncc(C(=O)Nc3c(C)cccc3Cl)s2)cc(N2CCN(CCO)CC2)n1", "note": "[Compound I, N-(2-chloro-6-methylphenyl)-2-{6-[4-(3-hydroxyethyl)-1-piperazinyl]-2-methyl-4-pyrimidinylamino}-5-thiazolecarboxamide]", "values": [{"measurement": "Mean value of cell viability based on three independent replicates", "setting": "[2]; 0.001 μM drug + Aβ42 10 μmol/L", "value": 46.65, "unit": "%"}, {"measurement": "Cell viability data in the first independent test", "setting": "[2]; [3]", "value": 26.98, "unit": "%"}, {"measurement": "Cell viability data in the second independent test", "setting": "[2]; [3]", "value": 54.70, "unit": "%"}, {"measurement": "Cell viability data in the third independent test", "setting": "[2]; [3]", "value": 58.28, "unit": "%"}, {"measurement": "Mean value of cell viability based on three independent replicates", "setting": "[2]; 0.01 μM drug + Aβ42 10 μmol/L", "value": 67.99, "unit": "%"}, {"measurement": "Cell viability data in the first independent test", "setting": "[2]; [4]", "value": 69.31, "unit": "%"}, {"measurement": "Cell viability data in the second independent test", "setting": "[2]; [4]", "value": 67.22, "unit": "%"}, {"measurement": "Cell viability data in the third independent test", "setting": "[2]; [4]", "value": 67.46, "unit": "%"}, {"measurement": "Mean value of cell viability based on three independent replicates", "setting": "[2]; 0.1 μM drug + Aβ42 10 μmol/L", "value": 71.02, "unit": "%"}, {"measurement": "Cell viability data in the first independent test", "setting": "[2]; 0.1 μM/L drug + Aβ42 10 μmol/L", "value": 80.78, "unit": "%"}, {"measurement": "Cell viability data in the second independent test", "setting": "[2]; 0.1 μM/L drug + Aβ42 10 μmol/L", "value": 64.25, "unit": "%"}, {"measurement": "Cell viability data in the third independent test", "setting": "[2]; 0.1 μM/L drug + Aβ42 10 μmol/L", "value": 68.05, "unit": "%"}, {"measurement": "Mean value of cell viability based on three independent replicates", "setting": "[2]; 1.0 μM drug + Aβ42 10 μmol/L", "value": 72.44, "unit": "%"}, {"measurement": "Cell viability data in the first independent test", "setting": "[2]; 1 μM/L drug + Aβ42 10 μmol/L", "value": 76.90, "unit": "%"}, {"measurement": "Cell viability data in the second independent test", "setting": "[2]; 1 μM/L drug + Aβ42 10 μmol/L", "value": 65.73, "unit": "%"}, {"measurement": "Cell viability data in the third independent test", "setting": "[2]; 1 μM/L drug + Aβ42 10 μmol/L", "value": 74.70, "unit": "%"}, {"measurement": "Mean value of cell viability based on three independent replicates", "setting": "[2]; 10 μM drug + Aβ42 10 μmol/L", "value": 63.20, "unit": "%"}, {"measurement": "Cell viability data in the first independent test", "setting": "[2]; 10 μM/L drug + Aβ42 10 μmol/L", "value": 68.61, "unit": "%"}, {"measurement": "Cell viability data in the second independent test", "setting": "[2]; 10 μM/L drug + Aβ42 10 μmol/L", "value": 56.51, "unit": "%"}, {"measurement": "Cell viability data in the third independent test", "setting": "[2]; 10 μM/L drug + Aβ42 10 μmol/L", "value": 64.50, "unit": "%"}, {"measurement": "Mean value of cell viability based on three independent replicates", "setting": "[2]; 100 μM drug + Aβ42 10 μmol/L", "value": 73.40, "unit": "%"}, {"measurement": "Cell viability data in the first independent test", "setting": "[2]; 100 μM/L drug + Aβ42 10 μmol/L", "value": 74.43, "unit": "%"}, {"measurement": "Cell viability data in the second independent test", "setting": "[2]; 100 μM/L drug + Aβ42 10 μmol/L", "value": 86.16, "unit": "%"}, {"measurement": "Cell viability data in the third independent test", "setting": "[2]; 100 μM/L drug + Aβ42 10 μmol/L", "value": 59.62, "unit": "%"}, {"measurement": "Mean value of cell viability based on three independent replicates", "setting": "[2]; 1000 μM drug + Aβ42 10 μmol/L", "value": 64.34, "unit": "%"}, {"measurement": "Cell viability data in the first independent test", "setting": "[2]; [5]", "value": 76.72, "unit": "%"}, {"measurement": "Cell viability data in the second independent test", "setting": "[2]; [5]", "value": 63.92, "unit": "%"}, {"measurement": "Cell viability data in the third independent test", "setting": "[2]; [5]", "value": 52.37, "unit": "%"}, {"measurement": "dose span of effective concentration range relative to JKF-027", "setting": "[2]; Aβ42 oligomer 10 μmol/L", "value": "10^4 times"}, {"measurement": "effective concentration range (anti-toxic effect against Aβ42 oligomer)", "setting": "[2]; [6]", "value": "0.01 to 1000", "unit": "µmol/L"}]}, {"smiles": "CCOc1cc2ncc(C#N)c(Nc3ccc(F)c(Cl)c3)c2cc1NC(=O)/C=C/CN(C)C", "note": "[EKB-569]", "values": [{"measurement": "treatment of Aβ42-induced memory loss", "setting": "[1]", "value": "effective"}]}, {"smiles": "CCOc1cc2ncc(C#N)c(Nc3ccc(OCc4cccc(F)c4)c(Cl)c3)c2cc1NC(=O)/C=C/CN(C)C", "note": "[HKI-357]", "values": [{"measurement": "treatment of Aβ42-induced memory loss", "setting": "[1]", "value": "effective"}]}, {"smiles": "C=CCNc1c(O)cc2c(O)c1C[C@@H](C)C[C@H](OC)[C@H](O)[C@@H](C)/C=C(\\C)[C@H](OC(N)=O)[C@@H](OC)/C=C\\C=C(/C)C(=O)N2", "note": "[IPI-504]", "values": [{"measurement": "treatment of Aβ42-induced memory loss", "setting": "[1]", "value": "effective"}]}, {"smiles": "N#C/C(=C\\c1ccc(-c2cc(C(=O)O)ccc2Cl)o1)C(=O)Nc1ccc(F)cc1", "note": "[JKF-006]", "values": [{"measurement": "curative effect in screening", "setting": "[1]", "value": "preferable curative effect"}, {"measurement": "treatment of Aβ42-induced memory loss", "setting": "[1]", "value": "effective"}]}, {"smiles": "N#C/C(=C\\c1ccc(N2CCOCC2)o1)C(=O)NCCc1c[nH]c2ccccc12", "note": "[JKF-027]", "values": [{"measurement": "curative effect in screening", "setting": "[1]", "value": "preferable curative effect"}, {"measurement": "treatment of Aβ42-induced memory loss", "setting": "[1]", "value": "effective"}, {"measurement": "Mean value of cell viability based on three independent replicates", "setting": "[2]; 0.01 μM drug + Aβ42 10 μmol/L", "value": 46.83, "unit": "%"}, {"measurement": "Cell viability data in the first independent test", "setting": "[2]; [4]", "value": 49.59, "unit": "%"}, {"measurement": "Cell viability data in the second independent test", "setting": "[2]; [4]", "value": 45.88, "unit": "%"}, {"measurement": "Cell viability data in the third independent test", "setting": "[2]; [4]", "value": 45.00, "unit": "%"}, {"measurement": "Mean value of cell viability based on three independent replicates", "setting": "[2]; 0.1 μM drug + Aβ42 10 μmol/L", "value": 61.39, "unit": "%"}, {"measurement": "Cell viability data in the first independent test", "setting": "[2]; 0.1 μM/L drug + Aβ42 10 μmol/L", "value": 77.44, "unit": "%"}, {"measurement": "Cell viability data in the second independent test", "setting": "[2]; 0.1 μM/L drug + Aβ42 10 μmol/L", "value": 48.40, "unit": "%"}, {"measurement": "Cell viability data in the third independent test", "setting": "[2]; 0.1 μM/L drug + Aβ42 10 μmol/L", "value": 58.33, "unit": "%"}, {"measurement": "Mean value of cell viability based on three independent replicates", "setting": "[2]; 1.0 μM drug + Aβ42 10 μmol/L", "value": 65.31, "unit": "%"}, {"measurement": "Cell viability data in the first independent test", "setting": "[2]; 1 μM/L drug + Aβ42 10 μmol/L", "value": 61.59, "unit": "%"}, {"measurement": "Cell viability data in the second independent test", "setting": "[2]; 1 μM/L drug + Aβ42 10 μmol/L", "value": 61.01, "unit": "%"}, {"measurement": "Cell viability data in the third independent test", "setting": "[2]; 1 μM/L drug + Aβ42 10 μmol/L", "value": 73.33, "unit": "%"}, {"measurement": "Mean value of cell viability based on three independent replicates", "setting": "[2]; 10 μM drug + Aβ42 10 μmol/L", "value": 77.28, "unit": "%"}, {"measurement": "Cell viability data in the first independent test", "setting": "[2]; 10 μM/L drug + Aβ42 10 μmol/L", "value": 87.60, "unit": "%"}, {"measurement": "Cell viability data in the second independent test", "setting": "[2]; 10 μM/L drug + Aβ42 10 μmol/L", "value": 69.75, "unit": "%"}, {"measurement": "Cell viability data in the third independent test", "setting": "[2]; 10 μM/L drug + Aβ42 10 μmol/L", "value": 74.50, "unit": "%"}, {"measurement": "Mean value of cell viability based on three independent replicates", "setting": "[2]; 100 μM drug + Aβ42 10 μmol/L", "value": 40.52, "unit": "%"}, {"measurement": "Cell viability data in the first independent test", "setting": "[2]; 100 μM/L drug + Aβ42 10 μmol/L", "value": 51.83, "unit": "%"}, {"measurement": "Cell viability data in the second independent test", "setting": "[2]; 100 μM/L drug + Aβ42 10 μmol/L", "value": 46.89, "unit": "%"}, {"measurement": "Cell viability data in the third independent test", "setting": "[2]; 100 μM/L drug + Aβ42 10 μmol/L", "value": 22.83, "unit": "%"}, {"measurement": "Mean value of cell viability based on three independent replicates", "setting": "[2]; 1000 μM drug + Aβ42 10 μmol/L", "value": 21.89, "unit": "%"}, {"measurement": "Cell viability data in the first independent test", "setting": "[2]; [5]", "value": 27.85, "unit": "%"}, {"measurement": "Cell viability data in the second independent test", "setting": "[2]; [5]", "value": 18.66, "unit": "%"}, {"measurement": "Cell viability data in the third independent test", "setting": "[2]; [5]", "value": 19.17, "unit": "%"}, {"measurement": "effective concentration range (anti-toxic effect against Aβ42 oligomer)", "setting": "[2]; [6]", "value": "0.1 to 10", "unit": "µmol/L"}, {"measurement": "optimum anti-toxic concentration", "setting": "[2]; [6]", "value": "0.1 to 10", "unit": "µmol/L"}]}, {"smiles": "COc1cc2c(Nc3ccc(Cl)c(Cl)c3F)ncnc2cc1OC[C@@H]1C[C@@H]2CN(C)C[C@@H]2C1", "note": "[XL647]", "values": [{"measurement": "treatment of Aβ42-induced memory loss", "setting": "[1]", "value": "effective"}]}, {"smiles": "COc1cc2c(Nc3ccc(Br)cc3F)ncnc2cc1OCC1CCN(C)CC1", "note": "[ZD-6474]", "values": [{"measurement": "treatment of Aβ42-induced memory loss", "setting": "[1]", "value": "effective"}]}]}
